Measured values from patent publication US10501479B2, “Benzenesulfonyl-asymmetric ureas and medical uses thereof” (HELSINN HEALTHCARE SA, priority 2016, dated 2019).
Where “and” joins values, the source holds several entries; their conditions need not be identical. Equal entries are not always repeated. Where two headings read alike, the source gives them in different places.

Legend:
[1] = Metabolic stability in mouse liver microsomes; assay type: in vitro ADME
In short: (§1)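 Test compounds were incubated with liver microsomes in 100 mM potassium phosphate buffer, pH 7.4, at 37 °C, with reactions started by an NADPH regenerating system after a 5 min preincubation. Samples taken at 0, 10, 30 and 90 min were quenched cold, centrifuged, and parent remaining was quantified by LC-MS/MS.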

[2] = target: T1, recombinant human ghrelin receptor (HEK293/GRLN) (Homo sapiens, UniProt Q92847); assay: Ghrelin inverse agonist potency (EC50) with IP-1 (IP-One HTRF) assay; assay type: cell-based; conditions: IP-1 assay
T1 construct: expressed in transfected cells
T1 sequence (Q92847 whole entry): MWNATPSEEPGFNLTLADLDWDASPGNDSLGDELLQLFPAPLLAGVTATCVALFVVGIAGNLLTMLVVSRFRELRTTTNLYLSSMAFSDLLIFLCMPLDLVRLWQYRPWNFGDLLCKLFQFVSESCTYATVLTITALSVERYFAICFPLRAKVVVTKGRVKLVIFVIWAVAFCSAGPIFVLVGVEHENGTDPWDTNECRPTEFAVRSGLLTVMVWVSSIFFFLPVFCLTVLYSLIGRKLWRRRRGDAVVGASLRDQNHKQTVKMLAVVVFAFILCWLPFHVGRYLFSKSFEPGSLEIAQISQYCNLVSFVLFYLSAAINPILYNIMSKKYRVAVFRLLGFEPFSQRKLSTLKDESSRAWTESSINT
In short: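 HEK293/GRLN cells were seeded 18-22 hours before the test, then exposed to compound in stimulation buffer for 1 hour at 37° C, 5% CO2. IP-1 was detected by IP-One HTRF (IP1-d2 plus Tb-cryptate, 1 hour RT), reading 620 and 665 nm; the inverse agonist EC50 was derived from this.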

[3] = target: T2, GHSR-1a (HEK293/GHSR1a cell line) (Homo sapiens, UniProt Q92847); assay: Ghrelin antagonist potency (IC50) with calcium FLIPR assay, ghrelin 10 nM; assay type: cell-based
T2 construct: expressed in transfected cells; host or cells: HEK293/GHSR1a cell line
T2 sequence (Q92847 whole entry): as above
In short: (§2)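 Cells seeded 24 h before the run were loaded with calcium dye for 30-60 min at room temperature or 37° C. For agonism, compound was added at t=20 sec and the calcium signal followed for 2 minutes. For antagonism, compound plus ghrelin (10 nM) went on at t=20 sec, and IC50 reflected the drop in ghrelin response.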

[4] = Metabolic stability in human liver microsomes; assay type: in vitro ADME
In short: as §1

[5] = Plasma protein binding (PPB), rat (R); assay type: in vitro ADME
[6] = target: T2, GHSR-1a (HEK293/GHSR1a cell line); assay: Ghrelin agonist potency (EC50) with calcium FLIPR assay; assay type: cell-based
In short: as §2

[7] = Plasma protein binding (PPB), human (H); assay type: in vitro ADME
[8] = Plasma protein binding (PPB), rat; assay type: in vitro ADME; conditions: read-out: PPB (R)
[9] = Plasma protein binding (PPB), mouse; assay type: in vitro ADME
[10] = Plasma protein binding (PPB), human; assay type: in vitro ADME; conditions: read-out: PPB (H) (converted)
[11] = Plasma protein binding (PPB), dog; assay type: in vitro ADME; conditions: read-out: PPB (D) (converted)
[12] = Animal PK study in mouse via i.v., p.o. and s.c. administration; assay type: in vivo; conditions: for Vd / clearance / half-life: plasma; for clearance: read-out: PK CL i.v.
In short: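 Single i.v. (tail vein), s.c. (neck scruff) or p.o. (gavage) dose to mice or rats; oral vehicle 1–5% DMSO/0.5% methylcellulose, i.v./s.c. vehicle 1–5% DMSO in 20% HP-β-cyclodextrin. Plasma sampled 0.083 (i.v./s.c.) or 0.25 to 24 h, analyzed by LC-MS/MS.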

hERG = hERG (Homo sapiens, UniProt Q12809); assay: hERG inhibition
Chain of hERG (Q12809 whole entry): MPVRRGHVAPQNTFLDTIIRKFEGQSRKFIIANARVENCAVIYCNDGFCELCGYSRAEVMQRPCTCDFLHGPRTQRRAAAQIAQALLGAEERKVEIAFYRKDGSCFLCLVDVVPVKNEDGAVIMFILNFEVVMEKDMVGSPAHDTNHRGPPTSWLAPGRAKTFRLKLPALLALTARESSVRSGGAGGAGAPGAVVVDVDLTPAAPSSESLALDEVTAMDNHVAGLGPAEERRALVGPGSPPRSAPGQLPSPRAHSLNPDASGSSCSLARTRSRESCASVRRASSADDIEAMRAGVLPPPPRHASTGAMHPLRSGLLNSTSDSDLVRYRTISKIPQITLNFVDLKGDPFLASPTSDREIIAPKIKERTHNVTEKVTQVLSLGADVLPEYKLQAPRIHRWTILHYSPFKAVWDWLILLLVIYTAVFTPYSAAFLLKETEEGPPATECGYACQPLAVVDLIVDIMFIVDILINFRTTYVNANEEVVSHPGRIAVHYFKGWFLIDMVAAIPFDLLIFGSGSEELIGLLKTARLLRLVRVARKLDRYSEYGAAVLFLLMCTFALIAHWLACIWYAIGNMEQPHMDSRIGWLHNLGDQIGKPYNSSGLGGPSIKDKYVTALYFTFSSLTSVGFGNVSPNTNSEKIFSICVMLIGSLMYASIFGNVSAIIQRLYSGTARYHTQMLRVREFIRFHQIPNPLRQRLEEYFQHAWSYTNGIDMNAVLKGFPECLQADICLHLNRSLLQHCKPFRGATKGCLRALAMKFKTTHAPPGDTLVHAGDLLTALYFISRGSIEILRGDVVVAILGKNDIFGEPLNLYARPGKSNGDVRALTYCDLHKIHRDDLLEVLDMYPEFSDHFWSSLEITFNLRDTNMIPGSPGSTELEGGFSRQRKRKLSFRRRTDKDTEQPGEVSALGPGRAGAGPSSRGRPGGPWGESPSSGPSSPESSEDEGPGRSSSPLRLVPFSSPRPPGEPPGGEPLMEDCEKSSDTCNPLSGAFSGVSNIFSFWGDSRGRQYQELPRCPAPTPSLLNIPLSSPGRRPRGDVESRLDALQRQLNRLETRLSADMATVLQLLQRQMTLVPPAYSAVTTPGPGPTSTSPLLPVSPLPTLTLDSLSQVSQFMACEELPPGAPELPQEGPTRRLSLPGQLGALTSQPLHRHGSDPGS

[13] = Animal PK study in rat via i.v., p.o. and s.c. administration; assay type: in vivo; conditions: rat
[14] = Plasma protein binding (PPB), rat; assay type: in vitro ADME; conditions: read-out: PPB (R) (converted)
[15] = Plasma protein binding (PPB), human; assay type: in vitro ADME; conditions: read-out: PPB (H)
[16] = Plasma protein binding (PPB), mouse; assay type: in vitro ADME; remark: listed apart in the source
[17] = Animal PK study in dog (i.v., p.o.); assay type: in vivo
[18] = Metabolic stability in rat liver microsomes; assay type: in vitro ADME
In short: as §1

[19] = Metabolic stability in dog liver microsomes; assay type: in vitro ADME
In short: as §1

[20] = ghrelin inverse agonist potency, read-out: Activity EC50
[21] = ghrelin antagonist potency, read-out: Activity IC50
[22] = ghrelin agonist potency, read-out: Activity EC50/EMax
[23] = HEK293/GRLN, read-out: Activity EC50 (ghrelin inverse agonist potency)
[24] = iv, 5 mg/kg, i.v., read-out: PK t1/2 i.v.
[25] = po, 10 mg/kg, p.o., read-out: PK t1/2 p.o.
[26] = HEK293/GHSR1a, read-out: Activity EC50/EMax: EC50 (ghrelin agonist potency)

Q: Which results are given for `CC(NC(=O)Nc1ccc(S(=O)(=O)Cc2ccc3c(c2)CNC3)cc1C(=O)O)c1ccccc1.Cl` (centres unmarked) [H1486, 5-((isoindolin-5-ylmethyl)sulfonyl)-2-(3-(1-phenylethyl)ureido)benzoic acid]?
A: Metabolic Stability Study M = mouse [1]: H = <10 M = <10 μL/min/mg; EC50 [2, 20]: 4.9 nM; IC50 [3, 21]: 9.21 nM; Metabolic Stability Study H = human [4]: H = <10 M = <10 μL/min/mg; fraction unbound [5]: 0.0265; EC50 [6, 22]: > 30000 nM; fraction unbound [7]: 0.0519

Q: For `CC(NC(=O)Nc1ccc(S(=O)(=O)Nc2ccc3c(c2)CCN(C)C3)cc1)c1cccc(Cl)c1Cl` (centres unmarked) [H1333, 4-(3-(1-(2,3-dichlorophenyl)ethyl)ureido)-N-(2-methyl-1,2,3,4-tetrahydroisoquinolin-6-yl)benzenesulfonamide], which “Metabolic Stability Study M = mouse” value [1] is on record?
A: 54 µL/min/mg

Q: What about the fraction unbound [8] of the same molecule?
A: 0.001

Q: And the EC50 [2, 23]?
A: 1.3 nM

Q: And the fraction unbound [9]?
A: 0.0006

Q: What about the fraction unbound [10] of the same molecule?
A: 0.0011

Q: What about the fraction unbound [11] of the same molecule?
A: 0.0015

Q: And the IC50 ([3]; HEK293/GHSR1a, ghrelin 10 nM, read-out: Activity IC50 (ghrelin antagonist potency))?
A: 2.24 nM

Q: And the “PK F” value [12]?
A: 2.08%

Q: What about the “PK CL p.o.” value ([12]; p.o.) of the same molecule?
A: 1400 mL/min/kg

Q: What about the “PK Vd p.o.” value ([12]; p.o.) of the same molecule?
A: 170 L/kg

Q: What about the Vd ([12]; iv, 5 mg/kg) of the same molecule?
A: 3.26 L/kg

Q: What about the clearance ([12]; iv, 5 mg/kg, i.v.) of the same molecule?
A: 29.7 mL/min/kg

Q: What about the half-life [12, 24] of the same molecule?
A: 1.27 h

Q: And the half-life [12, 25]?
A: 1.4 h

Q: And the “Metabolic Stability Study H = human” value [4]?
A: 47.2 µL/min/mg

Q: What about the EC50 [6, 26] of the same molecule?
A: > 30000 nM

Q: Which “Metabolic Stability Study M = mouse” value [1] does the source give for `CC(NC(=O)Nc1ccc(S(=O)(=O)Cc2ccc3c(c2)CNC3)cc1)c1ccccc1.Cl` (centres unmarked) [H1148, 1-(4-((isoindolin-5-ylmethyl)sulfonyl)phenyl)-3-(1-phenylethyl)urea] here?
A: 21.1 µL/min/mg

Q: And the EC50 ([2]; inverse agonist potency, read-out: EC50 (Activity))?
A: 2.9 nM and 3.13 nM

Q: What about the hERG inh (hERG) of the same molecule?
A: 12.52 µM

Q: And the “PK Vdiv” value ([13]; i.v.)?
A: 104.5 (R); L/Kg

Q: And the “PK t1/2iv” value ([13]; i.v.)?
A: 0.51 (R); h

Q: And the IC50 ([3]; ghrelin antagonist potency, read-out: IC50 (Activity))?
A: 10 nM

Q: What about the fraction unbound [14] of the same molecule?
A: 0.055

Q: And the fraction unbound [15]?
A: 0.088

Q: What about the fraction unbound [16] of the same molecule?
A: 0.077

Q: What about the “PK F” value [17] of the same molecule?
A: 15.7 (D) %

Q: What about the “PK CLiv” value ([17]; i.v.) of the same molecule?
A: 12 mL/min/kg

Q: And the “PK Vdiv” value ([17]; i.v.)?
A: 2.34 (D) L/Kg

Q: And the “PK t1/2iv” value ([17]; i.v.)?
A: 2.32 (D) h

Q: And the “PK CLpo” value ([17]; p.o.)?
A: 80.3 mL/min/kg

Q: What about the “PK Vdpo” value ([17]; p.o.) of the same molecule?
A: (M); 14.74 (D) L/Kg

Q: And the “PK t1/2po” value ([17]; p.o.)?
A: 2.34 (D) h

Q: And the “PK t1/2iv” value ([12]; i.v.)?
A: 1.37 h and 2.13 h

Q: And the “PK CLpo” value ([12]; p.o.)?
A: 1610 mL/min/kg and 2742 mL/min/kg

Q: What about the “Metabolic Stability Study H = human” value [4] of the same molecule?
A: 22.2 µL/min/mg

Q: Which EC50 [2, 20] does the source give for `COc1cc(S(=O)(=O)Cc2ccc3c(c2)CCNC3)ccc1NC(=O)N(O)C(C)c1cccc(Cl)c1Cl` (centres unmarked) [H1497, 1-(1-(2,3-dichlorophenyl)ethyl)-1-hydroxy-3-(2-methoxy-4-(((1,2,3,4-tetrahydroisoquinolin-6-yl)methyl)sulfonyl)phenyl)urea] here?
A: 3.3 nM

Q: And the IC50 [3, 21]?
A: 2.81 nM

Q: What about the “Metabolic Stability Study H = human” value [4] of the same molecule?
A: H = <10 μL/min/mg

Q: And the fraction unbound [5]?
A: 0.002

Q: What about the EC50 [6, 22] of the same molecule?
A: > 30000 nM

Q: What about the fraction unbound [7] of the same molecule?
A: 0.0016

Q: Which EC50 [2, 20] does the source give for `COc1cc(S(=O)(=O)Cc2ccc3c(c2)CCNC3)ccc1NC(=O)N(O)C(C)c1ccccc1` (centres unmarked) [H1498, 1-hydroxy-3-(2-methoxy-4-(((1,2,3,4-tetrahydroisoquinolin-6-yl)methyl)sulfonyl)phenyl)-1-(1-phenylethyl)urea] here?
A: 7.2 nM

Q: And the IC50 [3, 21]?
A: 24.8 nM

Q: And the “Metabolic Stability Study H = human” value [4]?
A: H = 9.9 μL/min/mg

Q: What about the fraction unbound [5] of the same molecule?
A: 0.0294

Q: And the EC50 [6, 22]?
A: > 30000 nM

Q: And the fraction unbound [7]?
A: 0.0123

Q: Which “Metabolic Stability Study M = mouse” value [1] does the source give for `COc1cc(S(=O)(=O)Cc2ccc3c(c2)CCNC3)ccc1NC(=O)NC(C)c1cccc(Cl)c1Cl.Cl` (centres unmarked) [H1415, 1-(1-(2,3-dichlorophenyl)ethyl)-3-(2-methoxy-4-(((1,2,3,4-tetrahydroisoquinolin-6-yl)methyl)sulfonyl)phenyl)urea] here?
A: 12.8 µL/min/mg

Q: What about the fraction unbound [8] of the same molecule?
A: 0.0023

Q: And the EC50 [2, 23]?
A: 0.573 nM and 0.4 nM

Q: What about the fraction unbound [9] of the same molecule?
A: 0.0007

Q: What about the “Metabolic Stability Study R = rat” value [18] of the same molecule?
A: 28.3 µL/min/mg

Q: What about the fraction unbound [10] of the same molecule?
A: 0.0015

Q: And the clearance ([13]; plasma, iv, 5 mg/kg, i.v., read-out: PK CL i.v. (R))?
A: 35.3 mL/min/kg

Q: What about the Vd ([13]; plasma, iv, 5 mg/kg, i.v., read-out: PK Vd i.v. (R)) of the same molecule?
A: 39.7 L/kg

Q: And the half-life ([13]; plasma, iv, 5 mg/kg, i.v., read-out: PK t1/2 i.v. (R))?
A: 13 h

Q: And the “PK F (R)” value [13]?
A: 8.9%

Q: And the “PK CL i.p. (R)” value ([13]; i.p.)?
A: 46 mL/min/kg

Q: What about the “PK Vd i.p. (R)” value ([13]; i.p.) of the same molecule?
A: 61.91 L/kg

Q: And the “PK t1/2 i.p. (R)” value ([13]; i.p.)?
A: 17/23

Q: And the “PK F” value [12]?
A: 1.12%

Q: What about the “PK CL p.o.” value ([12]; p.o.) of the same molecule?
A: 1240 mL/min/kg

Q: And the “PK Vd p.o.” value ([12]; p.o.)?
A: 326.9 L/kg

Q: What about the Vd ([12]; iv, 5 mg/kg) of the same molecule?
A: 1.72 L/kg

Q: And the clearance ([12]; iv, 5 mg/kg, i.v.)?
A: 17.2 mL/min/kg

Q: What about the half-life [12, 24] of the same molecule?
A: 1.16 h

Q: And the half-life [12, 25]?
A: 3.04 h

Q: What about the “Metabolic Stability Study H = human” value [4] of the same molecule?
A: < 10 µL/min/mg

Q: And the “Metabolic Stability Study D = dog” value [19]?
A: 10.5 µL/min/mg

Q: What about the EC50 [6, 26] of the same molecule?
A: > 30000 nM
